Data on two compounds can be found in ChEMBL document CHEMBL1147756, “Synthesis and antiviral activity of 7-deazaneplanocin A against orthopoxviruses (vaccinia and cowpox virus)” (Bioorg Med Chem Lett, 2006).

The test system of one assay is Vaccinia virus. The assay can be described thus: Antiviral activity against Vaccinia virus in HFF cells. The format is functional, organism-based. The settings on record: Orthopoxvirus vaccinia.
The test system of another assay is Cowpox virus. The assay can be described thus: Antiviral activity against Cowpox virus in HFF cells. The format is functional, organism-based.
In another assay the test system is HFF. Description: Cytotoxicity in HFF cells. It is filed as functional. The settings on record: Homo sapiens.

Each structure is given as a SMILES string.

Turning to `Nc1ccn(C[C@@H](CO)OCP(=O)(O)O)c(=O)n1` [CIDOFOVIR], the EC50 with Vaccinia virus was found to be 4.8 µM; in the assay on Cowpox virus, 5 µM.

`Nc1ncnc2c1ccn2[C@@H]1C=C(CO)[C@@H](O)[C@H]1O` [DEAZANEPLANOCIN A] came in with a CC50 with HFF greater than 300 µM. Also, the concentration for a half-maximal effect (EC50) with Vaccinia virus came to 3.4 µM; in the assay with Cowpox virus it was 1.2 µM. Also, the figures for the EC90 in the assay on Vaccinia virus and in the assay on Cowpox virus were 21.5 µM and 4.6 µM, respectively.
